Columns and labels:
[1] = molecular target: Insulin-like growth factor 1 receptor (Homo sapiens, UniProt P08069); test: Inhibition of human recombinant IGF1R (959 to end residues) using KKKSPGEYVNIEF as substrate after 40 mins by [gamma-33ATP] by radiometric scintillation counting analysis
[2] = molecular target: Mitogen-activated protein kinase kinase kinase 3 (Homo sapiens, UniProt Q99759); test: Inhibition of recombinant full length human MEKK3 using MBP as substrate incubated for 120 mins in presence of [gamma-33ATP by radiometric scintillation counting analysis
[3] = Intrinsic clearance in rat liver microsomes measured upto 45 mins in presence of NADPH by LC-MS analysis; type: ADME, Microsome; details: read-out: CLH
CDK18/Cyclin Y = CDK18/Cyclin Y (Homo sapiens, UniProt Q07002+Q8ND76, T166M); test: Inhibition of recombinant full length human cyclinY/CDK18 T166M mutant using YRRAAVPPSPSLS as substrate measured after 40 mins in presence of [gamma33P]ATP by radiometric scintillation counting analysis; type: protein-complex assay
[4] = molecular target: Mast/stem cell growth factor receptor Kit (Homo sapiens, UniProt P10721); test: Inhibition of recombinant human C-Kit (544 to end residues) using poly (Glu,Tyr) 4:1 as substrate in presence of [gamma-33ATP] by radiometric scintillation counting analysis
[5] = molecular target: Serine/threonine-protein kinase Sgk3 (Homo sapiens, UniProt Q96BR1); test: Inhibition of recombinant human SGK3 (119 to end residues) using GRPRTSSFAEGKK as substrate incubated for 40 mins in presence of [gamma33P]ATP by radiometric scintillation counting analysis
[6] = molecular target: Serine/threonine-protein kinase MARK2 (Homo sapiens, UniProt Q7KZI7); test: Inhibition of recombinant full-length human PAR1Balpha using KKKVSRSGLYRSP as substrate measured after 40 mins in presence of [gamma33P]ATP by radiometric scintillation counting analysis
[7] = molecular target: Serine/threonine-protein kinase TAO1 (Homo sapiens, UniProt Q7L7X3); test: Inhibition of recombinant human TAO1 (1 to 327 residues) using myelin basic protein as substrate incubated for 40 mins in presence of [gamma33P]ATP by radiometric scintillation counting analysis
[8] = Inhibition of human PIP4K2
[9] = molecular target: Tyrosine-protein kinase FRK (Homo sapiens, UniProt P42685); test: Inhibition of recombinant human PTK5 (218 to end residues) using GGEEEEYFELVKK as substrate incubated for 40 mins in presence of [gamma33P]ATP by radiometric scintillation counting analysis
[10] = molecular target: MAP/microtubule affinity-regulating kinase 4 (Homo sapiens, UniProt Q96L34); test: Inhibition of recombinant full length human MARK4 using KKKVSRSGLYRSP as substrate incubated for 40 mins in presence of [gamma-33ATP by radiometric scintillation counting analysis
[11] = molecular target: Serine/threonine-protein kinase SIK3 (Homo sapiens, UniProt Q9Y2K2); test: Inhibition of recombinant human SIK3 (1 to 307 residues) using KKKVSRSGLYRSP as substrate incubated for 40 mins in presence of [gamma33P]ATP by radiometric scintillation counting analysis
[12] = molecular target: Tyrosine-protein kinase Lck (Homo sapiens, UniProt P06239); test: Inhibition of recombinant full length activated human LCK using […] as substrate after 40 mins in presence of [gamma-33ATP] by radiometric scintillation counting analysis
CDK6/cyclin D3 = CDK6/cyclin D3 (Homo sapiens, UniProt Q00534); test: Inhibition of recombinant full length human CDK6/cyclinD3 using histone H1 as substrate incubated for 40 mins in presence of [gamma-33ATP] by radiometric scintillation counting analysis; type: protein-complex assay
Ephrin type-A receptor 3 = Ephrin type-A receptor 3 (Homo sapiens, UniProt P29320); test: Inhibition of recombinant human EphA3 (578 to end residues) using poly(Glu, Tyr) 4:1 as substrate measured after 40 mins in presence of [gamma33ATP] by radiometric scintillation counting analysis
[13] = molecular target: Mast/stem cell growth factor receptor Kit (Homo sapiens, UniProt P10721, D816V); test: Inhibition of recombinant human C-Kit D816V mutant (544 to end residues) using poly(Glu, Tyr) 4:1 as substrate incubated 40 mins in presence of [gamma-33ATP] by radiometric scintillation counting analysis
[14] = molecular target: Cyclin-dependent kinase-like 3 (Homo sapiens, UniProt Q8IVW4); test: Inhibition of recombinant full length human CDKL3 using RRRFRPASPLRGPPK as substrate incubated for 120 mins in presence of [gamma-33ATP] by radiometric scintillation counting analysis
[15] = molecular target: Mitogen-activated protein kinase kinase kinase 5 (Homo sapiens, UniProt Q99683); test: Inhibition of human recombinant ASK1 (649 to 946 residues) using myelin as substrate incubated for 40 mins in presence of [gamma-33ATP] by radiometric scintillation counting analysis
[16] = molecular target: Serine/threonine-protein kinase D1 (Homo sapiens, UniProt Q15139); test: Inhibition of recombinant full-length human PKCmu R135A mutant using KKLNRTLSVA as substrate incubated for 40 mins in presence of [gamma33P]ATP by radiometric scintillation counting analysis
[17] = molecular target: Maternal embryonic leucine zipper kinase (Homo sapiens, UniProt Q14680); test: Inhibition of recombinant human MELK (1 to 340 residues) using KKLNRTLSFAEPG as substrate incubated for 40 mins in presence of [gamma-33ATP by radiometric scintillation counting analysis
[18] = molecular target: MAP kinase-interacting serine/threonine-protein kinase 2 (Homo sapiens, UniProt Q9HBH9); test: Inhibition of recombinant full length human MNK2 using myelin basic protein as substrate incubated for 40 mins in presence of [gamma-33ATP by radiometric scintillation counting analysis
[19] = molecular target: Mitogen-activated protein kinase kinase kinase 10 (Homo sapiens, UniProt Q02779); test: Inhibition of recombinant human MLK2 (1 to 499 residues) using myelin basic protein as substrate incubated for 40 mins in presence of [gamma-33ATP by radiometric scintillation counting analysis
[20] = molecular target: Serine/threonine-protein kinase 4 (Homo sapiens, UniProt Q13043); test: Inhibition of recombinant full-length human MST1 using KKSRGDYMTMQIG as substrate measured after 40 mins in presence of [gamma33P]ATP by radiometric scintillation counting analysis
Insulin receptor = Insulin receptor (Homo sapiens, UniProt P06213); test: Inhibition of human recombinant activated IR (1005 to 1310 residues) using KKSRGDYMTMQIG as substrate after 40 mins by [gamma-33ATP]by radiometric scintillation counting analysis
[21] = molecular target: Tyrosine-protein kinase receptor TYRO3 (Homo sapiens, UniProt Q06418); test: Inhibition of recombinant human RSE (451 to end residues) using KVEKIGEGTYGVV as substrate incubated for 40 mins in presence of [gamma33P]ATP by radiometric scintillation counting analysis
[22] = molecular target: Hepatocyte growth factor receptor (Homo sapiens, UniProt P08581, D1228H); test: Inhibition of recombinant human MET A1209G/V1290L/D1246H triple mutant (974 to end residues) using KKKGQEEEYVFIE as substrate incubated for 40 mins in presence of [gamma-33ATP by radiometric scintillation counting analysis

Chain of Mitogen-activated protein kinase kinase kinase 3 (Q99759 whole entry): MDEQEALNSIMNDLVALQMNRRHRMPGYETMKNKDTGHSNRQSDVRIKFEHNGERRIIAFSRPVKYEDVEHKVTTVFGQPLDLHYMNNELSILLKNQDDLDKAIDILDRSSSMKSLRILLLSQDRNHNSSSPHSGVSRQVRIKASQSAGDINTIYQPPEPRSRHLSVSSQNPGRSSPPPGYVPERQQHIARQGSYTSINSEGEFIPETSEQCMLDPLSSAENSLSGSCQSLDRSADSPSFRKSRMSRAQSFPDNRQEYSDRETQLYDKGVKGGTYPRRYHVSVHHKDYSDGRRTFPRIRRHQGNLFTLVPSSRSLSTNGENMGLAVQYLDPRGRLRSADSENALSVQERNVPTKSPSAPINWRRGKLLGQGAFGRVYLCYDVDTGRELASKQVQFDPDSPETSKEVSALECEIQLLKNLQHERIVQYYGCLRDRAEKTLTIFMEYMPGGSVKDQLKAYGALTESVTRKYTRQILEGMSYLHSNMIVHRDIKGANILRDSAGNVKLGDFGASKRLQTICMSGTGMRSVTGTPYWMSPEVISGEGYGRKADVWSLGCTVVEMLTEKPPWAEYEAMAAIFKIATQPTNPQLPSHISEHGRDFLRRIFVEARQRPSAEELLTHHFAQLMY
Chain of Serine/threonine-protein kinase D1 (Q15139 whole entry, the tested form may be a part): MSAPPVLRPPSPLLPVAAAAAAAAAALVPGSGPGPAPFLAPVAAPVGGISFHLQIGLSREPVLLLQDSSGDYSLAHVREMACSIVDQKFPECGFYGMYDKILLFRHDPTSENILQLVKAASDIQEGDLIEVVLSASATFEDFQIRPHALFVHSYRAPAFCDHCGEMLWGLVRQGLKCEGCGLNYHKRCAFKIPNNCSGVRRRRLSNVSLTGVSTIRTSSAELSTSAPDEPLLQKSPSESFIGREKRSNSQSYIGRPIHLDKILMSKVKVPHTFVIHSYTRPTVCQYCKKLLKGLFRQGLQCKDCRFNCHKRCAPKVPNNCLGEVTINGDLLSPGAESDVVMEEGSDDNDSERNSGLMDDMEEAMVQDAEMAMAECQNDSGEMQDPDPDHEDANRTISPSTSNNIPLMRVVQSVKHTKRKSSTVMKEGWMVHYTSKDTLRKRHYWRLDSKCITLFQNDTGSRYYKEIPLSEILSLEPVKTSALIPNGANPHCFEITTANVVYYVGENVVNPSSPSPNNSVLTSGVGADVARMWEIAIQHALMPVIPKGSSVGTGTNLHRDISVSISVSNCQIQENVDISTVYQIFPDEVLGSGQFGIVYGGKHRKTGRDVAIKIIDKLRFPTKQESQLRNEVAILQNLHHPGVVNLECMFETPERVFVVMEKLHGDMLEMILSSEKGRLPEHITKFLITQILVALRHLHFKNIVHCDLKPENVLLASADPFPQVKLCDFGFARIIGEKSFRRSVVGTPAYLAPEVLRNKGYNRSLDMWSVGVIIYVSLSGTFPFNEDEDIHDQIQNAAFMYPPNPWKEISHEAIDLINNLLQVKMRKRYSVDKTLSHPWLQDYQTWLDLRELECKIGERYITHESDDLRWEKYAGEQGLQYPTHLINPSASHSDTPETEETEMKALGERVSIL
Chain of Serine/threonine-protein kinase Sgk3 (Q96BR1 whole entry): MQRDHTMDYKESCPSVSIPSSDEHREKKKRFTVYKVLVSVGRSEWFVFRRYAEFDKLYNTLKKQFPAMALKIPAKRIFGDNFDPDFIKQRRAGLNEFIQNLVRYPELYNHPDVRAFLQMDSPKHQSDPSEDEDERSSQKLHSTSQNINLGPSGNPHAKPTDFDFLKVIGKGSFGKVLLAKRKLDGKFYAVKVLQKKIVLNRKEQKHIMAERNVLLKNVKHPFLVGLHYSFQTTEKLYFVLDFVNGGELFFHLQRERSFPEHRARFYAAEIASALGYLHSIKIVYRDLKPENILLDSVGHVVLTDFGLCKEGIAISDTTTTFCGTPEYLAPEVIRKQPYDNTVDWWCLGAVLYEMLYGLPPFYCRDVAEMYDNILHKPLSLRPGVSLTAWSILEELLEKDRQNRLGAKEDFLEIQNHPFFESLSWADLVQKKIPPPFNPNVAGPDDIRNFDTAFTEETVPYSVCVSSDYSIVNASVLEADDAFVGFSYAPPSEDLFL
Chain of Serine/threonine-protein kinase MARK2 (Q7KZI7 whole entry, the tested form may be a part): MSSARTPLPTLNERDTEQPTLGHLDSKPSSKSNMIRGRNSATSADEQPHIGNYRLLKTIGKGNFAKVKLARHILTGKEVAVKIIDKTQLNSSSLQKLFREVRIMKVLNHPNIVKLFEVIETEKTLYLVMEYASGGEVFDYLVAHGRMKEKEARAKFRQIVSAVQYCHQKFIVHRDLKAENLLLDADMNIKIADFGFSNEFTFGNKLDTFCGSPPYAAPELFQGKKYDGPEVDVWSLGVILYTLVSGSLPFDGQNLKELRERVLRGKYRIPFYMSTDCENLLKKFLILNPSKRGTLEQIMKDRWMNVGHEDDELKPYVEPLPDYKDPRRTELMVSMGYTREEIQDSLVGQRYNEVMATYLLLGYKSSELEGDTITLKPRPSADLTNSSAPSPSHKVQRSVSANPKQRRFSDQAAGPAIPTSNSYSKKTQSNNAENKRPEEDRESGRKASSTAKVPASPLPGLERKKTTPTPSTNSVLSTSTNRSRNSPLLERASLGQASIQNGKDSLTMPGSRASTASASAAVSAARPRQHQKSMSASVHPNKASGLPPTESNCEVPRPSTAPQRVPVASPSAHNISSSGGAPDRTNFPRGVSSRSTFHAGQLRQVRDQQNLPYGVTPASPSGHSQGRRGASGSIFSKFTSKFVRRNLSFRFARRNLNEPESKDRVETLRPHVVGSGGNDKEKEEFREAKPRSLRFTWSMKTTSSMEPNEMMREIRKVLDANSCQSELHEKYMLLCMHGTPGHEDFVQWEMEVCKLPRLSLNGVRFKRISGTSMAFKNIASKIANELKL
Chain of Cyclin-dependent kinase-like 3 (Q8IVW4 whole entry, the tested form may be a part): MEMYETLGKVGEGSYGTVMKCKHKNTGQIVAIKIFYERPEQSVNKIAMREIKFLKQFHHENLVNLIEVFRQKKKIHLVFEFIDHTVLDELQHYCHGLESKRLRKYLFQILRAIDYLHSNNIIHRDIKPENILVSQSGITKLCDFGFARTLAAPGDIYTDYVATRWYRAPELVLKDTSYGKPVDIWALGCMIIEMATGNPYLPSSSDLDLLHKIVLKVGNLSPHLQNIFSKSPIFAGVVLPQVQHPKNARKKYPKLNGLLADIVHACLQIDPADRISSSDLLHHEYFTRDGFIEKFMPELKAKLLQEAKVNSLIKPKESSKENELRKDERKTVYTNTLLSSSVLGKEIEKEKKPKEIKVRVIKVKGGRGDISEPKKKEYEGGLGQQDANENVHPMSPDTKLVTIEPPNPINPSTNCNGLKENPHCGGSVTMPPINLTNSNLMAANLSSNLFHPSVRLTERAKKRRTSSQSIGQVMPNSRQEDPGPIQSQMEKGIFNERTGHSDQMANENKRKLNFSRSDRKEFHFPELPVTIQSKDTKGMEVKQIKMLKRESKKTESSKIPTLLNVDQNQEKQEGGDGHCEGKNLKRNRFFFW
Chain of MAP kinase-interacting serine/threonine-protein kinase 2 (Q9HBH9 whole entry, the tested form may be a part): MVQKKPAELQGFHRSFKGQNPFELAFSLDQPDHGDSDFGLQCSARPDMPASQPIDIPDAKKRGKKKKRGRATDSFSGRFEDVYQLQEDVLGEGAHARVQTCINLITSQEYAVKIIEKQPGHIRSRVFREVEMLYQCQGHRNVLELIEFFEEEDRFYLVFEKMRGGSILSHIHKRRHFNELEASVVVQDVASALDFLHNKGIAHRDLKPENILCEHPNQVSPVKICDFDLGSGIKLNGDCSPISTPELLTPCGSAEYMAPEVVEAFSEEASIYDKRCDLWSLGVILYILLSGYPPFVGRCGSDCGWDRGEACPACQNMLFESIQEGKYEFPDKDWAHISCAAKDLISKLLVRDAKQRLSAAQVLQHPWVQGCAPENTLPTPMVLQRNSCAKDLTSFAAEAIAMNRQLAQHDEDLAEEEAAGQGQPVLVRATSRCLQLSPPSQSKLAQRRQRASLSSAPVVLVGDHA
Chain of CDK18/Cyclin Y (Q07002 whole entry T166M, stated change not applied): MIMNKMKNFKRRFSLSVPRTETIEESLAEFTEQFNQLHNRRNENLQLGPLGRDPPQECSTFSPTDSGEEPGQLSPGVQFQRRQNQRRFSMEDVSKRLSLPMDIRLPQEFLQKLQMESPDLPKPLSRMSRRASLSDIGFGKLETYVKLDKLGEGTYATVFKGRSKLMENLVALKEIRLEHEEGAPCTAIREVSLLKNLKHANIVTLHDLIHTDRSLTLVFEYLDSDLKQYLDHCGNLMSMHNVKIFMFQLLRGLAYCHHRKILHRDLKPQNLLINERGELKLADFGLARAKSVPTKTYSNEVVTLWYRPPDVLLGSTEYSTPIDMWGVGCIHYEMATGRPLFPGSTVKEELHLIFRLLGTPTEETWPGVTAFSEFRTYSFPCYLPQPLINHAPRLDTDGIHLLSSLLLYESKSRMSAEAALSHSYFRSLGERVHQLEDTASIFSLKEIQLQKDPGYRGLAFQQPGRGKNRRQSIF
Chain of CDK18/Cyclin Y (Q8ND76 2-341 limits assumed, stated change not applied): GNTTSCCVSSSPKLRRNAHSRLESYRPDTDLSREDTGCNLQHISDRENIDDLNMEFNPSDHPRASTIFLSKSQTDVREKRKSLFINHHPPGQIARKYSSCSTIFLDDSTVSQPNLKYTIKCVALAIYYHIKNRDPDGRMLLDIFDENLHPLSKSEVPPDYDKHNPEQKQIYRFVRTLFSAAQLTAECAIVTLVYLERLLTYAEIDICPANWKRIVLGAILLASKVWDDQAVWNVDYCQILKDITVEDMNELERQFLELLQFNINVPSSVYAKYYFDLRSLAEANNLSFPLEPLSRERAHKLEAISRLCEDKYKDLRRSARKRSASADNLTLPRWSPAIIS

With CN(C)c1ccc(C(=O)Nc2cccc(NC(=O)COc3ccc4c(=O)ccoc4c3)c2)cc1 the IC50 [1] was > 10 µM, the IC50 [2] was > 10 µM and the CLint scaled [3] was 2260 mL/min/kg. For the same compound, the IC50 (CDK18/Cyclin Y) was > 10 µM, the IC50 [4] was > 10 µM and the IC50 [5] was > 10 µM. For the same compound, the IC50 [6] was > 10 µM, the IC50 [7] was > 10 µM and the IC50 [8] was > 10 µM. The IC50 [9] was > 10 µM, the IC50 [10] was > 10 µM and the IC50 [11] was > 10 µM. For the same compound, the IC50 [12] was > 10 µM, the IC50 (CDK6/cyclin D3) was > 10 µM and the IC50 (Ephrin type-A receptor 3) was > 10 µM. For the same compound, the IC50 [13] was > 10 µM, the IC50 [14] was > 10 µM and the IC50 [15] was > 10 µM. For the same compound, the IC50 [16] was > 10 µM, the IC50 [17] was > 10 µM and the IC50 [18] was > 10 µM. For the same compound, the IC50 [19] was > 10 µM, the IC50 [20] was > 10 µM and the IC50 (Insulin receptor) was > 10 µM. The IC50 [21] was > 10 µM and the IC50 [22] was > 10 µM.
